{"source": "paper PMC4050194", "about": "(FEBS Open Bio, 2014)", "target": "T1, Cra (FruR) protein of Pseudomonas putida (Cra^PP) (Pseudomonas putida, UniProt Q88PQ6)", "T1 sequence (Q88PQ6 1-331)": "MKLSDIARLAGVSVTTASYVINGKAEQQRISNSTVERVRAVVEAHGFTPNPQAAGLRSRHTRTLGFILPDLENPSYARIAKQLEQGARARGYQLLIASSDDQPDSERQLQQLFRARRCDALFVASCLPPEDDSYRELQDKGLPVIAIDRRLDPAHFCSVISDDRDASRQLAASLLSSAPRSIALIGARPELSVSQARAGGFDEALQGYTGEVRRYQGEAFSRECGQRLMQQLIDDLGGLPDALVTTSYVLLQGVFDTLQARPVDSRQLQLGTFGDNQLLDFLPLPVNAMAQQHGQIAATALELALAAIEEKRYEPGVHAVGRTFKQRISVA", "assay": "ITC with purified Cra", "type": "binding"}
{"smiles": "O=P(O)(O)OCC1(O)O[C@H](CO)[C@@H](O)[C@@H]1O", "note": "(stereo partly shown) [F1P, fructose 1-phosphate]", "values": [{"measurement": "Kd", "value": "~200", "unit": "nM"}]}
